Marks after values point to notes of the source that are not given here.
Experiments:
[1] = test system: imiquimod-induced dermatitis
Description: Topical imiquimod (IMQ), a toll-like receptor agonist, has been established as a model of Inflammatory skin diseases including psoriasis and atopic dermatitis. Dermal inflammatory changes and gene expression in mice treated with topical imiquimod mimic human psoriasis and dermatitis (van der Fits et al., 2009; Swindell et al., 2011). The effect of a set of compounds of the invention were tested in a mouse model of imiquimod-induced dermatitis, with topical tacrolimus and dexamethasone as comparators for assessing safety and efficacy relative to standard agents used to treat dermatitis in humans.
Commercial 0.1% tacrolimus ointment (ProTopic™[…]) was also used as an active comparator. Petrolatum containing 10% ethanol was used as a control treatment.
Female Balb/C mice (8 weeks old) were randomized and divided into groups of 5 animals each. Polyethylene collars were affixed to the mice to prevent them from easily scratching their ears. 5% imiquimod was applied to both ears of each mouse (20 microliters per ear) daily for 5 days, and then every other day for the full duration of the study. […] On day 7 after initiation of imiquimod, treatment with topical agents was started. Both ears of each mouse were treated with test ointments, with one compound per mouse.
Ear thickness and PASI assessments (Psoriasis Area and Severity Index, a standard psoriasis scoring system) were recorded twice per week throughout the study. The PASI score comprises the sum of evaluations of swelling, erythema and scaling on scales from 0 to 4; the maximum PASI score is 12, and the minimum, in unaffected skin, is 0).

[2] = test system: TPA induced chronic skin inflammation; experiment: Example E: TPA induced chronic skin inflammation mouse model, ear thickness; format: in vivo; conditions: day 22, 0.05 mg/ear daily topical from day 7, TPA-treated mice
Text: Objective: To evaluate the anti-inflammatory properties of compounds of the invention in a 12-O-tetradecanoylphorbol-13-acetate (TPA) induced chronic skin inflammation mouse model.
Topically applied phorbol esters such as TPA induce skin inflammation involving edema, macrophage and T cell infiltration and epidermal hyperplasia (Alford et al., 1992), and this system has been used as an animal model for dermatitis, mimicking aspects of human inflammatory skin disorders. TPA is also known as a tumor promoter, so that agents which inhibit hyperproliferative or angiogenic actions of TPA may inhibit tumor promotion.
Drug formulations: Compound AC was dissolved in isopropyl myristate:propylene glycol (1:1)+0.9% DMSO at the indicated concentrations. TPA was dissolved in acetone:water (99:1). Dexamethasone (0.06%) was dissolved in normal saline.
Mice: HSD-ICR(CD-1R) female mice at 8-10 weeks of age were used in this experiment.
Experimental Design: Mice were placed into six groups of 10 mice each. 20 μL of 0.01% TPA was administered to each ear on days 0, 2, 4, 7, 9, 11, 13, 15, 18, 20, and 22. 20 μL of AC at various concentrations or 20 μL of dexamethasone solution was applied to the ears daily beginning on day 7, after inflammatory changes in ear thickness were established. Ear thickness was measured with calipers every three days.

Compound: C[C@@H]1C[C@H]2[C@@H]3CCC4=CC(=O)C=C[C@]4(C)[C@@]3(F)[C@@H](O)C[C@]2(C)[C@@]1(O)C(=O)CO [Dexamethasone, reference compound]
- Ear thickness, Mean ± SEM ([1]; imiquimod-treated mice, topical ointment 0.06% active drug (dexamethasone 0.03%, tacrolimus 0.1%)): 0.305 ± 0.111
- Body Weight (mean ± SEM), Final ([1]; mouse, in vivo): 18.1 ± 0.5 g
- Body Weight (mean ± SEM), Initial ([1]; mouse, in vivo): 20.5 ± 0.6 g
- D BW (g) ([1]; mouse, in vivo): −2.4 * g
- Hair growth on the imiquimod-affected head area, in words ([1]; mouse, in vivo): remained hairless
- PASI Score, Mean ± SEM ([1]; scale 0-12, topical ointment 0.06% active drug (dexamethasone 0.03%, tacrolimus 0.1%)): 4.525 ± 0.375
- Ear thickness (mm) [2]: 0.301 ± 0.0722 mm
